Measurements taken from patent US20240245664A1, “METHODS OF USING USP15 INHIBITORS” (The Curators of the University of Missouri, priority 2021, published 2024).
“Also recorded” adds a separate entry of the source. Residues, ends and D or L forms follow the SMILES beside them. *: point of attachment. Cbz = O=C(OCc1ccccc1)*

Experiments:
GS [1] = assay: Rescue of endogenous GS protein levels in USP15-KO 293FT cells, immunoblot; assay type: cell-based; details: 2 μM MLN4924 or 2 mM MSO
Experimental: Cell extracts were analyzed by IB with the indicated antibodies.

GS [2] = assay: GS ubiquitylation in USP15-/- 293FT cells, TUBE2 pulldown; assay type: cell-based; details: for accumulation of ubiquitylated GS under CB-5083 with co-treatment: pre-treated 2 μM MLN4924 or 2 mM MSO 0.5 h, then CB-5083 6 h
From the text: FIG. 3B depicts a Western blot. […] Total ubiquitylated proteins were purified using TUBE2-agarose.

LN229 cells = details: no glutamine, MSO 2 mM, 5 days
Experimental: FIG. 3E depicts quantification of cell viability. […] An equal number of cells (1×10^6 cells in 10-cm plates) were then shifted to medium without glutamine in the presence (+) or absence (−) of the GS inhibitor MSO (2 mM) for 5 days, after which cell viability was quantified by staining with 0.4% Trypan blue. Cell viability was normalized to MSO-untreated control (−), which was set to 100%.

GS [3] = assay: GS stability in mTOR-shRNA 293FT cells treated with MLN4924 or MSO; assay type: cell-based; details: mTOR-shRNA TRIPZ_3 293FT cells, treated 14 h
Experimental: Cells were treated with different concentrations of MLN4924 for 14 h. Cell extracts were analyzed by IB with the indicated antibodies.
Cells were treated with different concentrations of MSO (G) for 14 h. Cell extracts were analyzed by IB with the indicated antibodies.

GS [4] = assay: Glutamine-induced GS degradation in glutamine-starved H1299 cells with Torin1 and CB5083; assay type: cell-based
Experimental: FIG. 8A depicts a Western blot. Glutamine-starved H1299 cells, pre-treated with 250 nM Torin1 and 10 μM CB5083 for 0.5 h, were stimulated with 4 mM glutamine for 4 h. Cell extracts were analyzed by IB with the indicated antibodies.

GS [5] = assay: Glutamine-induced GS ubiquitylation, TUBE2 pulldown and immunoblot in MCF7 cells; assay type: cell-based; details: MCF7 cells starved of glutamine 24 h; 40 μM NSC632839 or 20 μM PR-619 0.5 h, then 4 mM glutamine 2 h
Experimental: FIG. 1D depicts a Western blot. MCF7 cells, starved of glutamine for 24 h, were treated with MG132 (10 μM) and/or 40 μM NSC632839, 20 μM PR-619 for 0.5 h, followed by 4 mM glutamine treatment for 2 h. Total ubiquitylated proteins were purified using TUBE2-agarose, and then analyzed by IB with indicated antibodies. The relative ratio of ubiquitylated GS, GS(Ub)n to input GS, normalized to that of glutamine-treated cells in lane 2, are shown.

GS [6] = assay: Endogenous GS protein level by immunoblot in glutamine-treated MCF7 cells; assay type: cell-based; details: MCF7 cells starved of glutamine 24 h; inhibitor 0.5 h, then 4 mM glutamine 10 h
Experimental: FIG. 1E depicts a Western blot. MCF7 cells, starved of glutamine for 24 h, were treated with NSC632839 for 0.5 h, followed by 4 mM glutamine treatment for 10 h. Cell extracts were analyzed by IB. The relative ratio of GS:Actin is shown.
FIG. 1F depicts a Western blot. MCF7 cells, starved of glutamine for 24 h, were treated with PR-619 for 0.5 h, followed by 4 mM glutamine treatment for 10 h. Cell extracts were analyzed by IB. The relative ratio of GS:Actin is shown.

GS [7] = details: Jurkat cells, treated 4 h; cited from earlier work
GSPT1 = assay: CC-885-induced GSPT1 ubiquitylation and degradation in USP15-/- 293FT cells with inhibitors
mTORC1 = assay: Glutamine-induced serine phosphorylation of USP15^Flag and USP15-GS binding, IP in 293FT cells; assay type: cell-based
Experimental: FIG. 7B depicts a Western blot. 293FT cells, transfected with CT or USP15^Flag plasmid for 24 h, were grown in complete medium (C; 2 mM glutamine) or starved of glutamine for 24 h, then treated with Torin1 for 0.5 h, followed by 4 mM glutamine treatment for 1-2 h. Cell extracts were immunoprecipitated with anti-Flag. The relative ratios of phosphorylated serine USP15^Flag to total input USP15^Flag and endogenous GS interacted with USP15^Flag to input GS, normalized to that of untreated cells in lane 3, are shown.

USP15 [8] = assay: USP15 S229 phosphorylation by mass spectrometry in 293FT cells; assay type: cell-based; details: 250 nM Torin1 16 h vs DMSO
Experimental: FIG. 10C depicts the phosphorylation peptide abundance calculated by phosphorylated peptides/(phosphorylated peptides+unmodified peptides)*100%. The abundance of S229 phosphorylation (P-S229) was calculated and represented as mean±SD; n=2 per group (p=0.01035 by t test).
To map the phosphorylation sites of USP15, which has 32 potential serine/threonine phosphorylation sites reported in ‘PhosphoSitePlus’ with the most prevalent serine 229, USP15^Flag was immune-purified from 293FT cells treated with DMSO or 250 nM Torin1 for 16 h and analyzed by MS analysis. […] Moreover, it represents an mTOR consensus sequence motif S/T-P (where S is serine; T is threonine; and P is proline) (FIG. 10B). […] Thus, the MS data were consistent with the other results, showing that USP15 was phosphorylated at serine in an mTORC1-dependent manner (FIG. 7B-7C).
MS analysis to identify the phosphorylation sites of USP15 was done at the Charles W. Gehrke proteomics center—University of Missouri, as described previously (Peterson T R, et al., Cell. 2009; 137(5):873-86. Epub 2009/05/19).

U266 cells = assay: Neo-substrate degradation in U266 cells, PR-619 with lenalidomide, immunoblot; assay type: cell-based; details: PR-619 2 μM 1 h, lenalidomide 0, 2 and 10 μM 6 h
Experimental: FIG. 6L depicts a Western blot. […] Cell extracts were analyzed by SDS-PAGE and immunoblotting with indicated antibodies.

RPMI8226 cells = assay: RPMI8226 cell number/viability, PR-619 with lenalidomide, Trypan blue; assay type: cell-based; details: PR-619 1 μM with lenalidomide, 4 days
From the text: FIG. 6G depicts total cell number after different treatment conditions. […] Error bars represent the SEM of triplicates (P<0.003 by t test).

[9] = system: cysteine protease DUBs, including USP15; details: cited from earlier work
USP15 [10] = biological target: T1, USP15 (Homo sapiens, UniProt Q9Y4E8); assay: In vitro deubiquitylation assay with recombinant USP15 (rUSP15); details: for activity of USP15 (deubiquitylation of polyubiquitylated GSPT1): 37° C., 0.5 h
T1 sequence (Q9Y4E8 1-981): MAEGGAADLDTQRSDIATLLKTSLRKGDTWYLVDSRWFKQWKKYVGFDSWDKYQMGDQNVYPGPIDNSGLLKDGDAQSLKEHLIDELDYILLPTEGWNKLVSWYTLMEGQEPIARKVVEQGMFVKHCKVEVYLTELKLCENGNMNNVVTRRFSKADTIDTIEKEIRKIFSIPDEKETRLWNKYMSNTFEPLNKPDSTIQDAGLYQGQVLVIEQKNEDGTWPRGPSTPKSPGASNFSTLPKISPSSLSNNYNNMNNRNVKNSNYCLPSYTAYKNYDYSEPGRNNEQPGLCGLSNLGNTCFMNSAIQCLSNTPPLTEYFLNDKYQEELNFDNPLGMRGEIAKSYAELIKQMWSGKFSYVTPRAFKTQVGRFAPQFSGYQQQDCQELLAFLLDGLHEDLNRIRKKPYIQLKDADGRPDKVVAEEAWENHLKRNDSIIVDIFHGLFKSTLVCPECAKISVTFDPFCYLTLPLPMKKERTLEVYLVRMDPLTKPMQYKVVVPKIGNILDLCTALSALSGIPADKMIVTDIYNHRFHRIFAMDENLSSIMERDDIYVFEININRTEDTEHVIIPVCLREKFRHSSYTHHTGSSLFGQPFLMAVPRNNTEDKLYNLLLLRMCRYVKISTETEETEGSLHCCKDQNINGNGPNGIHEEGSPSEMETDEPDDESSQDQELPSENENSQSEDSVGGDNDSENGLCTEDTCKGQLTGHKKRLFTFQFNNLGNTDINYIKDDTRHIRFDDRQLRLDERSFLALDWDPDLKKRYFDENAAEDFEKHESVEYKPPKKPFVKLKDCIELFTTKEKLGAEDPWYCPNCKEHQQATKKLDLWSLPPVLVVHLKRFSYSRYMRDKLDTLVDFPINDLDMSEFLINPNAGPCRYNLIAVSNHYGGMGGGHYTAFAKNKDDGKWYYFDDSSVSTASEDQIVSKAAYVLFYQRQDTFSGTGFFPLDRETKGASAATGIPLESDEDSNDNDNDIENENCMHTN
From the text: GSPT1(Ub)n: polyubiquitylated GSPT1.
SE and LE: short and long exposures. GSPT1(Ub)n: polyubiquitylated GSPT1.

GS [11] = assay: Glutamine-induced GS degradation in H1299 cells co-treated with DUB inhibitor and MLN4924; assay type: cell-based; details: 2 μM MLN4924 with NSC632839 or PR-619, 4 mM glutamine 8 h
Experimental: FIG. 1G depicts a Western blot. […] Cell extracts were analyzed by IB. The relative ratio of GS:Actin is shown.
FIG. 1H depicts a Western blot. […] Cell extracts were analyzed by IB. The relative ratio of GS:Actin is shown.

CS(=N)(=O)CC[C@H](N)C(=O)O (stereo partly drawn) [MSO, L-Methionine sulfoximine]
downregulation of endogenous GS protein levels in USP15-KO cells (GS [1]): rescued
accumulation of ubiquitylated GS under CB-5083 with co-treatment (GS [2]): but not in cells co-treated with MLN4924 and MSO
cell viability, combined with USP15 depletion by shRNAs (LN229 cells; LN229 cells with USP15 shRNAs): synergistic inhibition of cell viability
cell viability (LN229 cells; control LN229 cells): severe defect in cell viability
effect of mTOR depletion by shRNA on GS stability (GS [3]): rescued the effect of mTOR depletion by shRNA on GS stability

Cc1cc2c(C(N)=O)cccc2n1-c1nc2c(c(NCc3ccccc3)n1)COCC2 [CB-5083]
accumulation of ubiquitylated GS (GS [2]; 0.5 mM glutamine, CB-5083 6 h): accumulation of ubiquitylated GS was observed
Torin-1-promoted glutamine-induced GS degradation with p97 inhibitor (GS [4]; H1299 cells, 10 μM CB5083 with 250 nM Torin1): blunted

Cc1ccc(/C=C2\CNC/C(=C\c3ccc(C)cc3)C2=O)cc1.Cl [NSC632839]
glutamine-induced ubiquitylation of GS (GS [5]): promoted glutamine-induced ubiquitylation of GS
protein levels of endogenous GS (GS [6]): decreased protein levels of endogenous GS

CC(C)C[C@@H](C=O)NC(=O)[C@H](CC(C)C)NC(=O)[C@H](CC(C)C)NC(=O)OCc1ccccc1 [MG132] (Cbz-Leu-Leu-Leu-aldehyde)
GS ubiquitylation (SILAC ubiquitinome) (GS [7]): increased ubiquitylation of GS
CC-885-induced degradation of GSPT1 (GSPT1; USP15-/- 293FT cells co-treated with CC-885 and inhibitor): blocked
polyubiquitylated GSPT1 on co-treatment with CC-885 (GSPT1; USP15-/- 293FT cells, 10 μM CB-5083 or 20 μM MG132, 10 μM CC-885 3 h): polyubiquitylated GSPT1 was accumulated

CCC(=O)N1CCN(c2ccc(-n3c(=O)ccc4cnc5ccc(-c6cnc7ccccc7c6)cc5c43)cc2C(F)(F)F)CC1 [Torin1]
glutamine-induced phosphorylated serine USP15^Flag (P-Ser-USP15) (mTORC1; Torin1 0.5 h then 4 mM glutamine 1-2 h): substantially abolished
binding of USP15 to GS (mTORC1; Torin1-treated): significant reduction in binding of USP15 to GS
glutamine-induced GS degradation (GS [4]; glutamine-starved H1299 cells, 250 nM Torin1, 4 mM glutamine 4 h): promoted glutamine-induced GS degradation
S229 phosphorylation of USP15 (USP15 [8]): significantly decreased

N#CSc1cc(SC#N)c(N)nc1N [PR-619]
glutamine-induced ubiquitylation of GS (GS [5]): promoted glutamine-induced ubiquitylation of GS
protein levels of endogenous GS (GS [6]): decreased protein levels of endogenous GS
degradation of neo-substrates on co-treatment with lenalidomide (U266 cells): significantly promoted degradation of neo-substrates
sensitization to lenalidomide (cell number/viability) (RPMI8226 cells): sensitized resistant cell line RPMI8226 to lenalidomide
GS ubiquitylation (SILAC ubiquitinome) (GS [7]): decreased GS ubiquitylation; also recorded: decreased the ubiquitination of GS
inhibition of DUB activity (previous study) [9]: can inhibit the activity of almost all cysteine protease DUBs, including USP15
activity of USP15 (deubiquitylation of polyubiquitylated GSPT1) (USP15 [10]; PR-619 100 μM): completely inhibited
USP15 activity (USP15 [10]; PR-619 concentration range 1-20 μM): substantially suppressed USP15 activity in a dose-dependent manner

NS(=O)(=O)OC[C@@H]1C[C@@H](n2ccc3c(N[C@H]4CCc5ccccc54)ncnc32)C[C@@H]1O [MLN4924]
effect on action of DUB inhibitors on glutamine-induced GS degradation (GS [11]): blocked the action of DUB inhibitors on glutamine-induced GS degradation
downregulation of endogenous GS protein levels in USP15-KO cells (GS [1]): rescued
accumulation of ubiquitylated GS under CB-5083 with co-treatment (GS [2]): but not in cells co-treated with MLN4924 and MSO
effect of mTOR depletion by shRNA on GS stability (GS [3]): rescued the effect of mTOR depletion by shRNA on GS stability
accumulation of polyubiquitylated GSPT1 (CC-885 with MG132 or CB-5083) in presence of MLN4924 (GSPT1; USP15-/- 293FT cells, 2 μM MLN4924): completely abolished

CCN1C(=O)C=CC1=O [N-Ethylmaleimide]
activity of USP15 (deubiquitylation of polyubiquitylated GSPT1) (USP15 [10]; NEM 20 mM (FIG. 5B legend)): completely inhibited
